Legend:
[1] = tested on: SW1990 tumor xenograft; assay: pancreatic cancer xenograft model; assay type: in vivo, BALB/c Nude Mice; conditions: 600 mg/kg IP, hypoxic status absent, methanesulfonate
[2] = tested on: MiaPaCa-2 tumor xenograft; assay: pancreatic cancer xenograft model; assay type: in vivo, BALB/c Nude Mice; conditions: MiaPaCa-2 xenograft, 600 mg/kg IP, hypoxic status absent, methanesulfonate
Method: (§1) All animal models were established as xenograft model in BALB/c Nude Mice (6-8 weeks old, 17-23 grams, maintained in standard conditions and diet), following approved IACUC (Institutional Animal Care and Use Committees) protocols. Cpd.11 Ms was formulated using 2% dimethyl sulfoxide (DMSO in water for injection, starting from a Cpd.11 Ms main preparation (100-60 mg/ml in 2% DMSO in water for injection).
(§2) After tumor cell inoculation, the animals were checked daily for morbidity and mortality. Before commencement of treatment all animals were weighed and the tumor volumes were measured using a caliper. The treatments were started when the mean tumor size reached approx. 250 mm^3. […] At the time of routine monitoring, the animals were checked for any effects of tumor growth and treatments on normal behavior such as mobility, visual estimation of food and water consumption, body weight gain/loss (body weights were measured daily during the 5-day treatment and thrice weekly after treatment), eye/hair matting and any other abnormal effect. Death and observed clinical signs were recorded on the basis of the numbers of animals within each subset. […] The surrogate endpoint for survival was calculated and indicated as TVx4 (initial tumor volume times 4). […] All data were analyzed in SPSS (Statistical Product and Service Solutions) version 18.0 (IBM, Armonk, NY, U.S.). […]

[3] = tested on: MDA-MB-231 tumor xenograft; assay: triple negative breast cancer xenograft model; assay type: in vivo, BALB/c Nude Mice; conditions: MDA-MB-231 xenograft; single treatment cycle
[4] = tested on: MiaPaca-2; assay: in vitro cell culture sensitivity in anoxic conditions; assay type: cell-based, human
[5] = tested on: MDA-MB-468 tumor xenograft; assay: breast cancer (TNBC) xenograft model; assay type: in vivo, BALB/c Nude Mice; conditions: MDA-MB-468 xenograft
[6] = tested on: PANC-1 tumor xenograft; assay: pancreatic cancer (PDAC) xenograft model; assay type: in vivo, BALB/c Nude Mice; conditions: PANC-1 xenograft; for Anti-tumor effect: 600 mg/kg IP, hypoxic status confirmed, methanesulfonate, 600 mg/kg
Method: as §1
(§3) After tumor cell inoculation, the animals were checked daily for morbidity and mortality. Before commencement of treatment all animals were weighed and the tumor volumes were measured using a caliper. The treatments were started when the mean tumor size reached approx. 250 mm^3. Each treated/control group contained 10 mice that were randomly assigned and injected daily for 5 days. The date of tumor cell inoculation was denoted as day 0 (thus injections were performed at day 1, 2, 3, 4, and 5). At the time of routine monitoring, the animals were checked for any effects of tumor growth and treatments on normal behavior such as mobility, visual estimation of food and water consumption, body weight gain/loss (body weights were measured daily during the 5-day treatment and thrice weekly after treatment), eye/hair matting and any other abnormal effect. Death and observed clinical signs were recorded on the basis of the numbers of animals within each subset. Tumor volumes were measured daily during the 5-day treatment and thrice weekly after treatment in two dimensions using a caliper, and the volume was expressed in mm3 using the formula: V=0.5 a×b2 where a and b are the long and short diameters of the tumor, respectively. The entire procedures of dosing as well as tumor and body weight measurement were conducted in a Laminar Flow Cabinet. Individual mice were euthanized by cervical dislocation when the tumor size reached 1400-1600 mm3. The surrogate endpoint for survival was calculated and indicated as TVx4 (initial tumor volume times 4). Statistical analysis of difference in tumor volume among the groups was conducted at the end of experiment using Independent-Samples T Test. All data were analyzed in SPSS (Statistical Product and Service Solutions) version 18.0 (IBM, Armonk, NY, U.S.). P-values were rounded to three decimal places, with the exception that raw P-values less than 0.001 were stated as P<0.001. All tests were two-sided. P<0.05 was considered to be statistically significant.
(§4) For the MDA-MB-436 tumor (ATCC: HTB-130; Passage: P4) cells were maintained in vitro as a monolayer culture in L-15 medium supplemented with 10% heat inactivated fetal bovine serum at 37° C. in an atmosphere of 100% air. […] The cells growing in an exponential growth phase were harvested and counted for tumor inoculation. […]

[7] = tested on: NCI-H1650 tumor xenograft; assay: lung cancer (NSCLC) xenograft model; assay type: in vivo, BALB/c Nude Mice
Method: as §1, §2

[8] = preliminary toxicology study, intravenous administration; assay type: in vivo, dog
Method: (§5) Preliminary toxicology studies of the intravenous administration of Cpd.11 Ms in rats and dogs according to a dosing regimen consisting of 3 consecutive days of administration in a 3 weekly cycle (QDx3/cycle) have shown that potential haematological toxicity in tissues such as the bone marrow, the thymus and lymph nodes (known to have hypoxic niches) can be minimized at dosages at or below 400 mg/kg in the rat and at or below 100 mg/kg in the dog. As such, these levels correspond to 2360 mg/m^2 and 2000 mg/m^2, respectively, in human subjects. […] Alternative dosing regimens also include weekly administration for up to 3 or 4 consecutive times of each 3 or 4 weekly cycle. In addition, also an initial dose of QDx3 or QDx5 could be combined with less frequent administration schedules that may still allow a therapeutic effect over tumor growth and development, such as up to 3 or 4 weekly dosages in 3 to 4 weekly cycles, or once a month (or every three-four weeks) schedules that be applied with or without the parallel treatment with the appropriate standard-of-care protocols.

[9] = tested on: MDA-MB-436 tumor xenograft; assay: triple negative breast cancer xenograft model; assay type: in vivo, BALB/c Nude Mice; conditions: MDA-MB-436 xenograft, single treatment cycle; for Anti-tumor effect: 600 mg/kg IP, hypoxic status confirmed, methanesulfonate, 600 mg/kg
Method: as §1, §3, §4

[10] = preliminary toxicology study, intravenous administration; assay type: in vivo, rat
Method: as §5

[11] = stability to gamma irradiation sterilization; conditions: powder filled vial sterilized under gamma irradiation

CCN1CCN(C(=O)c2cc(N(CCBr)CCOS(C)(=O)=O)c(S(C)(=O)=O)cc2[N+](=O)[O-])CC1.CS(=O)(=O)O [Cpd.11 Ms, 4-(5-((2-bromoethyl) (2-((methylsulfonyl)oxy)ethyl)amino)-4-(methylsulfonyl)-2-nitrobenzoyl)-1-ethylpiperazin-1-ium methanesulfonate]
Anti-tumor effect ([1]; listed as Cpd.11Ms): No impact | Anti-tumor effect [1]: not observed | Anti-tumor effect ([2]; listed as Cpd.11Ms): No impact | Anti-tumor effect [2]: not observed | tumour growth [3]: tumour growth rate reduction | sensitivity in anoxic conditions in vitro [4]: highly Cpd.11 Ms-sensitive | Anti-tumor effect ([5]; 200-800 mg/kg IP, hypoxic status confirmed): Strong impact, | impact on hypoxia by pimonidazole immunohistochemical staining ([5]; 400-800 mg/kg from 1 to 5 consecutive days): clear impact | Anti-tumor effect ([6]; single treatment cycle, listed as Cpd.11Ms): Clear impact, | Anti-tumor effect ([6]; single treatment cycle): significant tumour growth retardation | body weight loss ([6]; IP): without major body weight loss | increase in median surrogate survival index ([6]; single treatment cycle, P=0.0018): approx. 50% | Anti-tumor effect ([7]; 600 mg/kg IP, hypoxic status confirmed): Clear impact, | median surrogate survival index ([7]; single treatment cycle): significant effect | dosage at which potential haematological toxicity (bone marrow, thymus, lymph nodes) can be minimized ([8]; dog, intravenous, QDx3 in a 3 weekly cycle): ≤ 100 mg/kg | corresponding level in human subjects of the dog dosage ([8]; from 100 mg/kg in the dog): 2000 mg/m^2 | Anti-tumor effect ([9]; listed as Cpd.11Ms): Strong impact, | Anti-tumor effect [9]: significant regression of the tumour | effects on body weight ([9]; IP): absence of effects on body weight | median surrogate survival index (TVx4) compared to vehicle treated animals ([9]; IP): more than double | corresponding level in human subjects of the rat dosage ([10]; from 400 mg/kg in the rat): 2360 mg/m^2 | dosage at which potential haematological toxicity (bone marrow, thymus, lymph nodes) can be minimized ([10]; rat, intravenous, QDx3 in a 3 weekly cycle): ≤ 400 mg/kg | stability to sterilizing conditions [11]: sufficiently stable

Source: patent publication US12708620B2, “Prodrugs and medical uses thereof” (priority 2018, dated 2026)
